Values quoted from earlier work, collected in US20090181849A1, “Agricultural chemical containing top dressing composition and process for use thereof” (priority 2007, published 2009).

Tests used:
curvularia fungus = settings: Kentucky bluegrass plants growing in sand; sprayed and fertilized in separate applications; not on bent grass or Bermuda grass plants
S. homoeocarpa = settings: bent grass, blend of Cato:Crenshaw (50:50); disease pressure high

| Structure (SMILES) | control of curvularia fungus (curvularia fungus) | reduction of number of S. homoeocarpa infection centers (S. homoeocarpa) |
| --- | --- | --- |
| O=[N+]([O-])NC1=NCCN1Cc1ccc(Cl)nc1 [imidacloprid] | successful control |  |
| CSC(=O)c1cccc2nnsc12 [ASM, acibenzolar-5-methyl] |  | 38% |
